Data as given in ChEMBL document CHEMBL3244373, “Stereoselective effects of cis- and trans-cyclopropylbis (dioxopiperazines) related to ICRF-159 on metastases of hamster lung adenocarcinoma” (J Med Chem, 1978).
Blank lines part the entries; values can stand above or below the molecule they belong to. The source made the active and inactive calls. No cut-off for these calls is given here.

Assays:
[1] = Induction of tumor growth in Syrian hamster LG1002 cells in allografted Syrian golden hamster at 15 mg/kg, ip for every 48 hrs for 4 weeks measured after 48 hrs of last treatment; type: organism-based, Mesocricetus auratus; design: dose 15 mg/kg, route intraperitoneal; conditions: in vivo
[2] = system: Mesocricetus auratus; experiment: Antimetastatic activity against Syrian hamster LG1002 cells allografted to Syrian golden hamster LSH/LAK assessed as reduction of lung metastases at 15 mg/kg, ip for every 48 hrs for 4 weeks measured after 48 hrs of last treatment relative to carboxymethylcellulose; type: functional, organism-based; design: dose 15 mg/kg
[3] = system: Mesocricetus auratus; experiment: Antimetastatic activity against Syrian hamster LG1002 cells allografted to Syrian golden hamster LSH/LAK assessed as reduction of lung metastases at 15 mg/kg, ip for every 48 hrs for 4 weeks measured after 48 hrs of last treatment relative to saline control; type: functional, organism-based; design: dose 15 mg/kg
[4] = Induction of tumor growth in Syrian hamster LG1002 cells in allografted Syrian golden hamster at 15 mg/kg, ip for every 48 hrs for 4 weeks measured after 48 hrs of last treatment on day 28; type: organism-based, Mesocricetus auratus; design: dose 15 mg/kg, route intraperitoneal; conditions: in vivo

Compound: O=C1CN([C@@H]2C[C@@H]2N2CC(=O)NC(=O)C2)CC(=O)N1
Activity [1]: Non-toxic
inhibition [2]: Active
inhibition [3]: Active

Activity [4]: > 100 mm2
Compound: O=C1CN([C@H]2C[C@@H]2N2CC(=O)NC(=O)C2)CC(=O)N1 (relative stereo)
Activity [1]: Toxic
inhibition [2]: inactive
inhibition [3]: inactive
